Read-outs that look alike come from different tables or passages of the source.
Assays:
[1] = for AUC(0-inf): AUCinf; for AUC(0-t): AUClast; for Fed:Fasted GMR (90% CI) AUCinf / Fed:Fasted GMR (90% CI) Cmax: adjusted geometric mean ratio fed:fasted
[2] = Food-effect pharmacokinetic study of ertugliflozin 15-mg tablet; conditions: for AUC(0-t): AUClast
[3] = for AUC(0-inf) / AUC(0-t) / Cmax / Tmax / half-life: plasma, single oral dose, healthy subjects; for AUC(0-inf): AUCinf; for AUC(0-inf) / AUC(0-t) / Cmax / Tmax / half-life / Fed:Fasted GMR (90% CI) AUCinf / Fed:Fasted GMR (90% CI) Cmax: ertugliflozin 15-mg/sitagliptin 100-mg FDC tablet; for AUC(0-t): AUClast; for Tmax: median (range); for half-life: t1/2, arithmetic mean ± SD; for Fed:Fasted GMR (90% CI) AUCinf / Fed:Fasted GMR (90% CI) Cmax: adjusted geometric mean ratio fed:fasted
[4] = Summary across the 3 food-effect studies; type: in vivo, human
[5] = early phase 1 and 2 studies, no reference given; cited from earlier work
[6] = cited from earlier work
[7] = high solubility and high permeability; no reference given; cited from earlier work
[8] = metformin 850 mg alone; cited from earlier work
[9] = sitagliptin monotherapy, cited from earlier work
[10] = both, human, plasma, po, arithmetic mean ± SD, ertugliflozin 7.5-mg/metformin 1000-mg FDC tablet, single oral dose, healthy subjects, fed (high-fat breakfast)
[11] = both, human, plasma, po, geometric mean (geometric %CV), ertugliflozin 7.5-mg/metformin 1000-mg FDC tablet, single oral dose, healthy subjects, fasted
[12] = both, human, plasma, po, geometric mean (geometric %CV), ertugliflozin 7.5-mg/metformin 1000-mg FDC tablet, single oral dose, healthy subjects, fed (high-fat breakfast)
[13] = ertugliflozin 7.5-mg/metformin 1000-mg FDC tablet
[14] = ertugliflozin 15-mg tablet, adjusted geometric mean ratio fed:fasted
[15] = both, human, po, geometric mean (geometric %CV), fasted
[16] = both, human, po, geometric mean (geometric %CV), fed (high-fat breakfast)
[17] = both, human, po, fed (high-fat breakfast)

CCOc1ccc(Cc2cc([C@]34OC[C@](CO)(O3)[C@@H](O)[C@H](O)[C@H]4O)ccc2Cl)cc1 [Ertugliflozin]
Decrease of Cmax in the fed state compared with the fasted state ([1]; administered as ertugliflozin/metformin FDC, based on adjusted GMR): 41%
AUC(0-inf) [1, 10]: 621 ± 168 ng·h/mL
AUC(0-inf) [1, 11]: 655 ng·h/mL
AUC(0-inf) [1, 12]: 602 ng·h/mL
AUC(0-t) [1, 10]: 606 ± 166 ng·h/mL
AUC(0-t) [1, 11]: 640 ng·h/mL
AUC(0-t) [1, 12]: 587 ng·h/mL
Cmax [1, 10]: 82.3 ± 40.7 ng/mL
Cmax [1, 11]: 126 ng/mL
Cmax [1, 12]: 75.3 ng/mL
half-life ([1]; both, human, plasma, po, t1/2, arithmetic mean ± SD, ertugliflozin 7.5-mg/metformin 1000-mg FDC tablet, single oral dose, healthy subjects, fed (high-fat breakfast)): 11.2 ± 4.5 h
Fed:Fasted GMR (90% CI) AUCinf [1, 13]: 93.8 (90.1–97.7) %
Fed:Fasted GMR (90% CI) Cmax [1, 13]: 59.4 (51.1–69.1) %
Decrease of Cmax in the fed state compared with the fasted state ([2]; administered as monotherapy (15-mg tablet), based on adjusted GMR): 29%
half-life ([2]; both, human, plasma, po, 15 mg): 11.5 ± 2.6 h
AUC(0-inf) ([2]; both, human, plasma, po, 15 mg, AUCinf, geometric mean (geometric %CV), ertugliflozin 15-mg tablet, single oral dose, healthy subjects, fasted): 1330 ng·h/mL
AUC(0-t) ([2]; both, human, plasma, po, 15 mg, geometric mean (geometric %CV), ertugliflozin 15-mg tablet, single oral dose, healthy subjects, fasted): 1310 ng·h/mL
AUC(0-t) ([2]; both, human, plasma, po, 15 mg, geometric mean (geometric %CV), ertugliflozin 15-mg tablet, single oral dose, healthy subjects, fed (high-fat breakfast)): 1220 ng·h/mL
Cmax ([2]; both, human, plasma, po, 15 mg, Cmax, geometric mean (geometric %CV), ertugliflozin 15-mg tablet, single oral dose, healthy subjects, fasted): 271 ng/mL
Fed:Fasted GMR (90% CI) AUCinf [2, 14]: 91.7 (88.0–95.4) %
Fed:Fasted GMR (90% CI) Cmax [2, 14]: 70.7 (61.7–80.9) %
Decrease of Cmax in the fed state compared with the fasted state ([3]; administered as ertugliflozin/sitagliptin FDC, based on adjusted GMR): 30%
AUC(0-inf) [3, 15]: 1170 ng·h/mL
AUC(0-inf) [3, 16]: 1110 ng·h/mL
AUC(0-t) [3, 15]: 1150 ng·h/mL
AUC(0-t) [3, 16]: 1090 ng·h/mL
Cmax ([3]; both, human, po, Cmax, geometric mean (geometric %CV), fasted): 223 ng/mL
Cmax ([3]; both, human, po, Cmax, geometric mean (geometric %CV), fed (high-fat breakfast)): 157 ng/mL
Tmax [3, 17]: 2 h
half-life [3, 17]: 11.6 ± 2.3 h
Fed:Fasted GMR (90% CI) AUCinf [3]: 94.6 (91.6–97.8) %
Fed:Fasted GMR (90% CI) Cmax [3]: 70.5 (63.3–78.4) %
Delay of median Tmax, fed compared with fasted ([4]; in all 3 studies): 1 h
Reduction of Cmax, fed compared with fasted ([4]; range across the 3 studies): 29%–41%
Maximum tolerated dose [5]: has not been identified
Dose proportionality of exposure ([6]; dose range of 0.5 to 300 mg): dose proportional
median Tmax ([6]; phase 1 studies, oral administration, fasted conditions): 0.5 to 1.5 h
terminal elimination half-life (t1/2) ([6]; phase 1 studies): 11 to 17 h
Biopharmaceutical Classification System (BCS) class [7]: class I

CN(C)C(=N)N=C(N)N [Metformin]
Delay of Tmax, fed versus fasted ([1]; administered as ertugliflozin/metformin FDC tablet): 1.7 h
Tmax ([1]; both, human, plasma, po): 2.3 h
Cmax [1, 10]: 1520 ± 417 ng/mL
Cmax [1, 11]: 2040 ng/mL
Cmax [1, 12]: 1460 ng/mL
Fed:Fasted GMR (90% CI) AUCinf [1, 13]: 92.8 (85.1–101.3) %
Fed:Fasted GMR (90% CI) Cmax [1, 13]: 70.7 (63.6–78.5) %
Tmax, median (range) ([1]; ertugliflozin 7.5-mg/metformin 1000-mg FDC tablet, single oral dose, healthy subjects, plasma, fed (high-fat breakfast)): 4.0 (0.5–8.0) h
Increase in Tmax, fed versus fasted [8]: approximately 35 minute
Lower AUC, fed versus fasted [8]: 25%
Lower mean Cmax, fed versus fasted [8]: 40%

N[C@@H](CC(=O)N1CCn2c(nnc2C(F)(F)F)C1)Cc1cc(F)c(F)cc1F [Sitagliptin]
fed:fasted GMR for Cmax ([9]; 90% CI 86%–103%): 94%
fed:fasted GMR for AUCinf ([9]; 90% CI 97%–111%): 103%
AUC(0-inf) [3, 16]: 7.1 µM·h
AUC(0-t) [3, 15]: 7.3 µM·h
Tmax [3, 17]: 1.8 h
half-life [3, 17]: 12.1 ± 1.6 h
Fed:Fasted GMR (90% CI) AUCinf [3]: 96.6 (94.0–99.4) %
Fed:Fasted GMR (90% CI) Cmax [3]: 96.1 (82.4–112.1) %
Cmax ([3]; read-out: Cmax, geometric mean (geometric %CV), fed (high-fat breakfast), 1.00 ng/mL = 2.46 nM): 721 nM

Reference: publication PMC6618047 (Clinical Pharmacology in Drug Development, 2018)
